Laboratory results as given in article PMC10931833, “Simultaneous Purification of Human Interferon Alpha-2b and Serum Albumin Using Bioprivileged Fluorinated Ionic Liquid-Based Aqueous Biphasic Systems” (International Journal of Molecular Sciences, 2024).
Like-named read-outs stand apart in the source and are kept apart here.

Target: T1, FITC-IFN-α2b (Homo sapiens, UniProt P01563)
T1 construct: single non-glycosylated polypeptide chain with a molecular weight of 19 kDa, comprising 165 amino acids; purchased Millipore Sigma-Aldrich SRP4595-100UG; host or cells: E. coli
T1 sequence (P01563 24-188): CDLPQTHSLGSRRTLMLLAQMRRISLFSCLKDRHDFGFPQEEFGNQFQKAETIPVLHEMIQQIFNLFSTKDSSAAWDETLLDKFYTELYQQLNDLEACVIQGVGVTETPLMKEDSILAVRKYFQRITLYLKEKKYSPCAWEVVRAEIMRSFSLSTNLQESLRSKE
Experiment: MST binding to FITC-IFN-α2b
Method: Typically, in the labeling process, one amine per protein is labeled, statistically distributing the position of the dye. Consequently, the risk of the label impairing the binding is minimal, given the typical number of lysine residues in proteins. […] The MST assay was performed as detailed in Section 3. […] For IFN- α 2b a concentration of 2.7 μ M was also prepared to compare it with previous results on MST-binding between FILs and IFN- α 2b fluorescently labeled with a different tag. In each run of MST, a maximum concentration of a ligand is selected and consecutively diluted in sixteen capillaries. […] The experimental conditions of the MST assay only allow the study of the aggregation phenomenon individually for the first CAC. For the MST runs with the concentration of the first capillary above the second CAC, the determined K d values for the runs that yield binding are influenced by several aggregates, making it impossible to attribute the K d value to a specific CAC. However, K d comprises the influence of the distinct aggregates of the FIL on binding affinity with both proteins, allowing a qualitative analysis of the impact of the different aggregates on binding affinity.
Microscale thermophoresis (MST) measurements of the dye-labeled protein were used to conduct binding investigations. […] MST tests were conducted in a monolith NT.115 (blue/red) in accordance with the NanoTemper Technologies methodology. Medium MST power and 20% LED power (nano-blue) were set as the instrument’s default settings. For every MST measurement, a PBS buffer was used. The concentration of FITC-BSA was fixed at 0.4 μ M and FITC-IFN- α 2b was tested under two different concentrations (of 0.4 and 2.7 μ M). The ligand was used to create a set of 16 1:1 dilutions, with the starting ligand concentrations ranging from 10 to 400 mM. The typical parameters for MST traces were used for recording: […], 30 s MST power on, and 5 s MST power off. The data from three independently conducted pipetted experiments were examined using NanoTemper Technologies’ MO.Affinity Analysis software, version 2.3.

CCn1cc[n+](C)c1.O=S(=O)([O-])C(F)(F)C(F)(F)C(F)(F)C(F)(F)F [1-ethyl-3-methylimidazolium perfluorobutane sulfonate]
Kd (0.41 μM IFN-α2b, max. conc. first capillary below 1st CAC (monomer)): no binding detected
Kd (0.41 μM IFN-α2b, max. conc. first capillary in 2nd CAC range, 25 °C, read-out: Kd): 0.71 ± 0.37 mM
Kd (0.41 μM IFN-α2b, max. conc. first capillary in 4th CAC range, 25 °C, read-out: Kd): 6.28 ± 1.09 mM
Kd (2.7 μM IFN-α2b, max. conc. first capillary in 1st CAC range, 25 °C, read-out: Kd): 9.1 ± 6.38 mM
Kd (2.7 μM IFN-α2b, max. conc. first capillary in 3rd CAC range, 25 °C, read-out: Kd): 29.9 ± 6.27 mM
